In ChEMBL document CHEMBL5579795, “Therapeutic potential of Coumarin-polyphenolic acid hybrids in PD: Inhibition of α-Syn aggregation and disaggregation of preformed fibrils, leading to reduced neuronal inclusion formation” (Bioorg Med Chem Lett, 2024):

How the values were obtained:
[1] = Cytotoxicity against rat PC-12 cells assessed as cell viability at 100 uM measured after 24 hrs by CCK-8 assay (reference value: 100%); format: toxicity, cell-based; settings: read-out: Activity
[2] = target: Alpha-synuclein (Homo sapiens, UniProt P37840); test: Inhibition of alpha-Synuclein (unknown origin) aggregation assessed as aggregation inhibition ratio measured after 72 hrs by Thioflavin T based fluorescence assay

| Structure (SMILES) | viability at 24 h, 100 µM [1] [%] | IC50 [2] [µM] |
| --- | --- | --- |
| O=C(Nc1ccc2oc(=O)ccc2c1)c1cc(O)ccc1O | > 80 |  |
| O=C(/C=C/c1cc(O)ccc1O)Nc1ccc2oc(=O)c(NC(=O)/C=C/c3cc(O)ccc3O)cc2c1 | > 90 |  |
| O=C(/C=C/c1cc(O)c(O)c(O)c1)Nc1ccc2oc(=O)ccc2c1 | > 90 |  |
| O=C(/C=C/c1cc(O)ccc1O)Nc1ccc2oc(=O)ccc2c1 | > 90 |  |
| Oc1cc(O)c2c(c1)O[C@H](c1cc(O)c(O)c(O)c1)[C@H](O)C2 [EPIGALLOCATECHIN] |  | 2.58 |
